Data taken from US10220040B2, “Compounds, compositions and methods useful for cholesterol mobilization” (Cerenis Therapeutics Holding SA, priority 2010, dated 2019).

Assays:
human P2Y13 receptor = human P2Y13 receptor (Homo sapiens (Human), UniProt Q9BPV8); test: Ca++ flux agonist assay on P2Y13 receptor transfected 1321N1 cells; assay type: cell-based; details: Table 4, measured from data of Figure 2; comma is decimal sign
Method: Compounds were assayed for their agonist activity on P2Y13 GPCR transfected cells using a Ca++ flux assay (associated to fluorescent dye detection) with the Reference Compound as positive reference. Two cell lines, 1321N1-P2Y13 stably expressing human P2Y13 receptor, and 1321N1 parental cell line as control, were used in this assay. 1321N1 Parental and 1321N1 P2Y13 were seeded into T25 flasks at 3 million cells per flask, respectively. Cells were incubated at 37 degrees Celsius in 5% CO2 overnight. The day after, cells were transfected with Gqi5 protein using Fugene transfection reagent (Roche's Fugene Reagent).
After 24 hours of transfection, cells were collected from flasks and seeded in 384-well plates at 8000 cells per well. The assays were carried out 48 hours after Gqi5 transfection.
Methods: The Ca++ flux assay was conducted according to the manufacturer's protocol (Molecular Devices FLIPR Calcium 4 Assay kit (R8142). Briefly, cell culture media were aspirated from the wells and replaced with 25 μL of Hank's buffer or PBS buffer. 25 μL of Ca++ dye was added into each assay well. The plate was incubated for 1 hour at 37° C. in 5% CO2. After the incubation, the plate was transferred to FlexStation III (FlexStation III (Molecular Devices)). The compounds were automatically injected into each well.

[1] = system: P2Y13 knock-down Hepa 1-6 cells; test: HDL uptake on P2Y13 knock-down Hepa 1-6 cells; assay type: cell-based, mouse; details: in presence of Compound IIa (1 μM); doxycycline 72 hours; p<0.005
Method: FIG. 15: HDL uptake on P2Y13 knock-down Hepa 1-6 cells. Hepa 1-6 cells transduced with lentiviral particles coding the P2Y13 shRNA were induced by the addition of doxycycline for 72 hours. Cells were incubated for 10 min at 37° C. with 75 μg/ml ^3H cholesterol ether HDL and Compound IIa (1 μM). Data are expressed as the percentage of internalized radioactivity with respect to the control value (set as […]).*p<0.05, **p<0.005.
In order to relate the specific P2Y13 HDL uptake to the illustrative compounds of the invention, a knock-down P2Y13 in a mouse liver cell line (Hepa 1-6) was investigated. Lentiviral particles coding for the mouse P2Y13 shRNA and inducible by the addition of doxycycline onto the cells (pTRIPZ vector from Open Biosystem) were used. In presence of doxycycline, a decrease of the P2Y13 mRNA (FIG. 11) was observed. The uptake of HDL on this cell line was measured in the presence and the absence of Compound IIa and doxycycline (FIG. 12). A significant decrease of HDL uptake (8.5%) was observed when the cells were treated with doxycycline (group vehicle—p<0.05).
Transduced Hepa 1-6 cells were plated at 300,000 cells/well in 6×-well plates. […]
The lentiviral production in HEK 293T and authorization for lentiviral production was obtained by Vectalys. […] 24 hours after transduction, the number of cells was counted. […]

C57Bl6 mice = test: Bile acids physiology after IV injection in mice; assay type: in vivo; details: intravenously 10 nmol/kg, after 4 h; effect slightly higher than with Cangrelor
Method: FIG. 5A-B: Single-dose effect of the illustrative compounds of the invention on bile acids secretion after IV injection. Mice were fasted for 2 hours and then injected in the caudal vein with the selected molecules (10 nmol/kg) in PBS solution (100 μl). 4 hours later the bile content was analyzed. FIG. 5A. Data are expressed as the concentration of bile acids. FIG. 5B. Data are expressed as the pool of bile acids per mouse (*p<0.05, **p<0.005, ***p<0.0001). Group of animals n=5.
Bile acids are derived from cholesterol and their synthesis is the predominant pathway for catabolism of cholesterol. The HDL uptake by the liver is directly connected with the bile acids secretion and the bile cholesterol clearance. […] An increase of bile acids concentration as well as of the bile volume was observed. All the compounds responded as well as or even better than the control compound (Reference Compound).
Bile acids were diluted in PBS (1:5000) and the concentration was measured according to the manufacturer protocol with slight modifications. Concentrations of bile acids in the standard curve were varied from […] and the enzymatic reaction was performed for 20 minutes. 4 μl of 1:5000 bile dilution was used for concentration determination.

Sequence of human P2Y13 receptor (Q9BPV8 whole entry): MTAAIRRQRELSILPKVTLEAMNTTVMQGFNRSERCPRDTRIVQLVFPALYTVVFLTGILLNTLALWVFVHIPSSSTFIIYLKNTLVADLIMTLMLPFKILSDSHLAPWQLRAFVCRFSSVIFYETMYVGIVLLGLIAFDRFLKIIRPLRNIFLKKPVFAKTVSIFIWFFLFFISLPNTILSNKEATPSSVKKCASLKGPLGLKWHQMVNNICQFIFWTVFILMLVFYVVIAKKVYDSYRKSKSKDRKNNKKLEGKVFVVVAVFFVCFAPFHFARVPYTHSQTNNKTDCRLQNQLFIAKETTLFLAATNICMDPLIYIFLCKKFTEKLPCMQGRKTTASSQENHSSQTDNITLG

EC50 (human P2Y13 receptor): 40.3 µM
SMILES: CN(C)c1ncc(CN2CCC(c3cc(O)nc(N4CCOCC4)n3)CC2)cn1 [Compound IIa, 6-[1-(2-Dimethylaminopyrimidin-5-ylmethyl)-piperidin-4-yl]-2-morpholin-4-yl-pyrimidin-4-ol]
decrease of HDL uptake when cells were treated with doxycycline (P2Y13 knock-down) [1]: 17.5% | bile acids (BA) and free cholesterol secretion into bile (C57Bl6 mice): increase
